Columns and labels:
AMPA receptor = assay: In vivo electrophysiology: field EPSP amplitude in the dentate gyrus of anesthetized animals; parameters: species or system rat
Procedure: A. Enhancement of AMPA Receptor Function In Vivo.
Synaptic responses mediated by AMPA receptors are increased according to the method of the invention, using the compounds described herein.
(§1) The electrophysiological effects of the invention compounds were tested in vivo in anesthetized animals according to the following procedures. Animals are maintained under anesthesia by phenobarbital administered using a Hamilton syringe pump. Stimulating and recording electrodes are inserted into the perforant path and dentate gyrus of the hippocampus, respectively. Once electrodes are implanted, a stable baseline of evoked responses are elicited using single monophasic pulses (100 μs pulse duration) delivered at 3/min to the stimulating electrode. Field EPSPs are monitored until a stable baseline is achieved (about 20-30 min), after which a solution of test compound is injected intraperitoneally and evoked field potentials are recorded. Evoked potentials were recorded for approximately 2 h following drug administration or until the amplitude of the field EPSP returns to baseline. In the latter instance, it is common that an iv administration is also carried out with an appropriate dose of the same test compound. Invention compounds were assayed in the in vivo electrophysiology assay described above and data for representative test compounds is shown in column 1 in Table 1.
The electrophysiological effects of invention compounds were tested in vivo in anesthetized animals according to the following procedures.
as §1, with “Animals” for “The electrophysiological effects of the invention compounds were tested in vivo in anesthetized animals according to the following procedures. Animals”, “are” for “were”, “compound.” for “compound. Invention compounds were assayed in the in vivo electrophysiology assay described above and data for representative test compounds is shown in column 1 in Table 1.”

[1] = test system: d-amphetamine stimulated locomotion in mice; assay: Inhibition of d-amphetamine stimulated locomotion; assay type: in vivo; conditions: Mus musculus, ip, 18 mpk i.p., d-amphetamine 2 mg/kg
Procedure: B. Behavioral Testing: Inhibition of d-Amphetamine Stimulated Locomotion
The ability of the invention compounds to inhibit d-Amphetamine stimulated locomotor activity was assayed according to the following procedure. Male CD1 mice, 25-30 gm body weight, were brought into the experimental room and allowed at least 30 min of acclimation. Each mouse was placed into the testing enclosure with an infrared beam array that automatically monitors the animal's activity. Mice were habituated in the testing enclosure for 20 min, and then returned to their home cage. Mice were dosed intraperitoneally with test compound in appropriate vehicle 5 minutes before d-Amphetamine injection (2 mpk). Ten minutes after d-Amphetamine injection, mice were tested for locomotor activity for a total of […]. The data was computer collected and expressed as “arbitrary movement units.” All data were analyzed by comparing the groups treated with the test compound to the vehicle control group. The data shown is the % inhibition of hyperactivity induced by acute administration of 2 mg/kg d-amphetamine in mice. The compounds tested produced a statistically significant inhibition of d-amphetamine stimulated locomotion.
Male CD1 mice, 25-30 gm body weight, were brought into the experimental room and allowed at least 30 min of acclimation. Each mouse was placed into the testing enclosure with an infrared beam array that automatically monitors the animal's activity. Mice were habituated in the testing enclosure for 20 min, and then returned to their home cage. Mice were dosed intraperitoneally with test compound in appropriate vehicle 5 minutes before d-Amphetamine injection. Ten minutes after d-Amphetamine injection, mice were tested for locomotor activity for a total of 15 minutes. The data was computer collected and expressed as “arbitrary movement units.” All data were analyzed by comparing the groups treated with the test compound to the vehicle control group.

[2] = dosed intravenously (footnote 3)

| SMILES | melting point [°C] | In vivo Electrophysiology: % increase in the amplitude of the field EPSP in the dentate gyrus of rat (AMPA receptor; 10mpk i.p.) [%] | other results |
| --- | --- | --- | --- |
| O=C(c1ccc2nonc2c1)N(CC(F)(F)F)C1CCOCC1 [Example 25, N-Tetrahydro-2H-pyran-4-yl-N-(2,2,2-trifluoroethyl)-[2,1,3]-benzoxadiazole-5-carboxamide] | 134 to 135 | – | In vivo Electrophysiology: % increase in the amplitude of the field EPSP in the dentate gyrus of rat (AMPA receptor; [2]): 10%^3 |
| CN1CCC(N(C)C(=O)c2ccc3nonc3c2)CC1 [Example 28, N-Methyl-N-(1-methylpiperidin-4-yl)-[2,1,3]-benzoxadiazole-5-carboxamide] | > 260 | – | – |
| CN(C(=O)c1ccc2nonc2c1)[C@@H]1CCOC1 [Example 73, N-Methyl-N—(R)-tetrahydrofuran-3-yl-[2,1,3]-benzoxadiazole-5-carboxamide] | – | 13 | – |
| CN(C(=O)c1ccc2nonc2c1)C1CCCC(F)(F)C1 (stereo not shown) [Example 62, N-Methyl-N-(3,3-difluorocyclohexyl)-[2,1,3]-benzoxadiazole-5-carboxamide] | 119 to 120 | – | – |
| O=C(c1ccc2nccnc2c1)N1CCCCC1 [CX516, 1-(quinoxalin-6-ylcarbonyl)piperidine, reference compound] | – | – | increase in amplitude of the field EPSP (AMPA receptor; rat dentate gyrus, 50 mg/kg i.p.): 9% |
| CN(C(=O)c1ccc2nonc2c1)[C@H]1CC[C@H](C#N)CC1 [Example 11, N-(trans-4-cyanocyclohexyl)-N-methyl-[2,1,3]-benzoxadiazole-5-carboxamide] | – | 12 | – |
| CN(C(=O)c1ccc2nonc2c1)[C@H]1CC[C@H](n2ncnn2)CC1 [Example 56, N-Methyl-N-[trans-4-(2H-tetrazol-2-yl)cyclohexyl]-[2,1,3]-benzoxadiazole-5-carboxamide] | – | 19 | – |
| CN(C(=O)c1ccc2nonc2c1)C1CCCCC1 [Example 4, N-Cyclohexyl-N-methyl-[2,1,3]-benzoxadiazole-5-carboxamide] | 134 to 135 | 17 | inhibition in vivo at 18 mg/kg [1]: 80% |
| CN(C(=O)c1ccc2nccnc2c1)C1CCOCC1 [Example 36, N-Methyl-N-tetrahydro-2H-pyran-4-ylquinoxaline-6-carboxamide] | 130 to 131 | – | In vivo Electrophysiology: % increase in the amplitude of the field EPSP in the dentate gyrus of rat (AMPA receptor; [2]): 5%^3 |
| CN(C(=O)c1ccc2nonc2c1)C1CCC1 [Example 6, N-Cyclobutyl-N-methyl-[2,1,3]-benzoxadiazole-5-carboxamide] | 51 to 52 | 10 | inhibition in vivo at 18 mg/kg [1]: 37% |
| CN(C(=O)c1ccc2nonc2c1)[C@H]1CC[C@H](O)CC1 [Example 51, N-(4-trans-Hydroxycyclohexyl)-N-methyl-[2,1,3]-benzoxadiazole-5-carboxamide] | – | 21 | inhibition in vivo at 18 mg/kg [1]: 100% |
| CN(C(=O)c1ccc2nonc2c1)C1CCCC1 [Example 5, N-Cyclopentyl-N-methyl-[2,1,3]-benzoxadiazole-5-carboxamide] | 110 to 111 | 15 | – |
| O=C(NC1CCOC(O)C1)c1ccc2nonc2c1 (stereo not shown) [Example 66, N-(2-Hydroxytetrahydro-2H-pyran-4-yl)-[2,1,3]-benzoxadiazole-5-carboxamide] | 91 to 92 | – | – |
| CN(CC1CCCCC1)C(=O)c1ccc2nonc2c1 [Example 19, N-(Cyclohexylmethyl)-N-methyl-[2,1,3]-benzoxadiazole-5-carboxamide] | 71 to 72 | – | – |
| CN(C(=O)c1ccc2nonc2c1)C1CCSCC1 [Example 33, N-Methyl-N-(tetrahydro-2H-thiopyran-4-yl)-[2,1,3]-benzoxadiazole-5-carboxamide] | – | – | In vivo Electrophysiology: % increase in the amplitude of the field EPSP in the dentate gyrus of rat (AMPA receptor; [2]): 16%^3 |
| CN(C(=O)c1ccc2nonc2c1)C1CCOCC1 [Example 12, N-Methyl-N-tetrahydro-2H-pyran-4-yl-[2,1,3]-benzoxadiazole-5-carboxamide] | – | 20 | inhibition in vivo at 18 mg/kg [1]: 66% |
| CO[C@H]1CC[C@H](N(C)C(=S)c2ccc3nonc3c2)CC1 [Example 54, N-(trans-4-Methoxycyclohexyl)-N-methyl-[2,1,3]-benzoxadiazole-5-carbothioamide] | – | – | In vivo Electrophysiology: % increase in the amplitude of the field EPSP in the dentate gyrus of rat (AMPA receptor; [2]): 18%^3 |
| CN(C(=O)c1ccc2nonc2c1)C1CCC(F)(F)CC1 [Example 40, N-(4,4-Difluorocyclohexyl)-N-methyl-[2,1,3]-benzoxadiazole-5-carboxamide] | 137 to 138 | 18 | inhibition in vivo at 18 mg/kg [1]: 84% |
| CN(C(=O)c1ccc2nonc2c1)C1CCOC(=O)C1 (stereo not shown) [Example 68, N-Methyl-N-(2-oxotetrahydro-2H-pyran-4-yl)-[2,1,3]-benzoxadiazole-5-carboxamide] | 169 to 171 | – | – |
| O=C(NC1CCCOC1)c1ccc2nonc2c1 (stereo not shown) [Example 15, N-(Tetrahydro-2H-pyran-3-yl)-[2,1,3]-benzoxadiazole-5-carboxamide] | 204 to 205 | – | – |
| CN(C(=O)c1ccc2nonc2c1)[C@H]1CC[C@@H](C#N)CC1 [Example 10, N-(cis-4-Cyanocyclohexyl)-N-methyl-[2,1,3]-benzoxadiazole-5-carboxamide] | 222 to 223 | – | – |
| CN(C(=O)c1ccc2nonc2c1)C1CCOC(O)C1 (stereo not shown) [Example 69, N-(2-Hydroxytetrahydro-2H-pyran-4-yl)-N-methyl-[2,1,3]-benzoxadiazole-5-carboxamide] | < 90 | – | – |
| CN(C(=O)c1ccc2nonc2c1)[C@H]1CC[C@](C)(O)CC1 [Example 45, N-(trans-4-hydroxy-4-methylcyclohexyl)-N-methyl-[2,1,3]-benzoxadiazole-5-carboxamide] | 175 to 176 | 19 | inhibition in vivo at 18 mg/kg [1]: 122% |
| CN(Cc1ccccc1)C(=O)c1ccc2nonc2c1 [Example 20, N-Benzyl-N-methyl-[2,1,3]-benzoxadiazole-5-carboxamide] | 105 to 106 | – | – |
| CCN(C(=O)c1ccc2nonc2c1)C1CCCCC1 [Example 18, N-Cyclohexyl-N-ethyl-[2,1,3]-benzoxadiazole-5-carboxamide] | 51 to 52 | – | – |
| CN(C(=O)c1ccc2nonc2c1)C1CCN(C(=O)OC(C)(C)C)CC1 [Example 26, tert-Butyl-4-[([2,1,3]-benzoxadiazol-5-ylcarbonyl)(methyl)amino]piperidine-1-carboxylate] | 98 to 100 | – | – |
| CCN(C(=O)c1ccc2nonc2c1)C1CCOCC1 [Example 17, N-Ethyl-N-tetrahydro-2H-pyran-4-yl-[2,1,3]-benzoxadiazole-5-carboxamide] | 102 to 104 | 12 | inhibition in vivo at 18 mg/kg [1]: 23% |
| O=C(c1ccc2nonc2c1)N(C1CCOCC1)C1CC1 [Example 24, N-Cyclopropyl-N-tetrahydro-2H-pyran-4-yl-[2,1,3]-benzoxadiazole-5-carboxamide] | 108 to 109 | – | – |
| CN(C(=O)c1ccc2nonc2c1)C1CCCCC1(F)F (stereo not shown) [Example 65, N-Methyl-N-(2,2-difluorocyclohexyl)-[2,1,3]-benzoxadiazole-5-carboxamide] | 101 to 102 | – | – |
| CO[C@H]1CC[C@H](N(C)C(=O)c2ccc3nonc3c2)CC1 [Example 53, N-(trans-4-Methoxycyclohexyl)-N-methyl-[2,1,3]-benzoxadiazole-5-carboxamide] | – | 17 | inhibition in vivo at 18 mg/kg [1]: 94% |

From US8642633B2, “Di-substituted amides for enhancing glutamatergic synaptic responses” (Cortex Pharmaceutical, Inc., priority 2007, dated 2014)
